Experimental data reported in article PMC4965013, “Open Source Drug Discovery with the Malaria Box Compound Collection for Neglected Diseases and Beyond” (PLoS Pathogens, 2016).
Like-named read-outs stand apart in the source and are kept apart here.

Legend:
P. falciparum 3D7 = test: [3H]-hypoxanthine growth inhibition, modified HCO3- or O2; format: cell-based; details: for IC50: Plasmodium falciparum
[1] = test system: P. falciparum 3D7 trophozoites; test: Metabolomic fingerprint profiling LC-MS; format: cell-based, Plasmodium falciparum; design: UDP-D-glucose / ADP-D-glucose: unit not given here; details: for Acetyllysine / N-acetyl-L-ornithine / N-carbamoyl-L-aspartate / NADPH / dAMP / dCMP / dTDP / dTMP / dTTP / dihydroorotate / orotate / DLH / DLS/SDL/SID / PD / PEE / PVNF / 3-phosphoglycerate / ADP-D-glucose / ATP / CDP / D-sedoheptulose-1/7-phosphate / FAD / GMP / NAD+ / NADP+ / Octoluse Bisphosphate / Pyroglutamic acid / UDP-D-glucose / UDP-D-glucuronate / UDP-N-acetyl-glucosamine / UDP / UMP / UTP / a-ketoglutarate / citrate/isocitrate / cytidine / dATP / dGMP/AMP / fumarate / glucose-1/6-phosphate / glycerate / guanine / guanosine / hypoxanthine / indole / inosine / nicotinate / ornithine / phosphoenolpyruvate / pyruvate / ribose-phosphate / sarcosine/alanine / sn-glycerol-3-phosphate / succinate/methylmalonic acid / uridine / xanthosine: S2 Table Metabolomics; for Acetyllysine: metabolite Acetyllysine; for N-acetyl-L-ornithine: metabolite N-acetyl-L-ornithine; for N-carbamoyl-L-aspartate: metabolite N-carbamoyl-L-aspartate; for NADPH: metabolite NADPH; for dAMP: metabolite dAMP; for dCMP: metabolite dCMP; for dTDP: metabolite dTDP; for dTMP: metabolite dTMP; for dTTP: metabolite dTTP; for dihydroorotate: metabolite dihydroorotate; for orotate: metabolite orotate; for DLH: peptide DLH; for DLS/SDL/SID: peptide DLS/SDL/SID; for PD: peptide PD; for PEE: peptide PEE; for PVNF: peptide PVNF; for 3-phosphoglycerate: metabolite 3-phosphoglycerate; for ADP-D-glucose: metabolite ADP-D-glucose; for ATP: metabolite ATP; for CDP: metabolite CDP; for CDP / D-sedoheptulose-1/7-phosphate / GMP / Octoluse Bisphosphate / UDP / UMP / UTP / citrate/isocitrate / dGMP/AMP / fumarate / glucose-1/6-phosphate / glycerate / guanine / guanosine / inosine / pyruvate / sarcosine/alanine / succinate/methylmalonic acid / uridine / xanthosine: change in metabolite level after compound treatment; for D-sedoheptulose-1/7-phosphate: metabolite D-sedoheptulose-1/7-phosphate; for FAD: metabolite FAD; for GMP: metabolite GMP; for NAD+: metabolite NAD+; for NADP+: metabolite NADP+; for Octoluse Bisphosphate: metabolite Octoluse Bisphosphate; for Pyroglutamic acid: metabolite Pyroglutamic acid; for UDP-D-glucose: metabolite UDP-D-glucose; for UDP-D-glucuronate: metabolite UDP-D-glucuronate; for UDP-N-acetyl-glucosamine: metabolite UDP-N-acetyl-glucosamine; for UDP: metabolite UDP; for UMP: metabolite UMP; for UTP: metabolite UTP; for a-ketoglutarate: metabolite a-ketoglutarate; for citrate/isocitrate: metabolite citrate/isocitrate; for cytidine: metabolite cytidine; for dATP: metabolite dATP; for dGMP/AMP: metabolite dGMP/AMP; for fumarate: metabolite fumarate; for glucose-1/6-phosphate: metabolite glucose-1/6-phosphate; for glycerate: metabolite glycerate; for guanine: metabolite guanine; for guanosine: metabolite guanosine; for hypoxanthine: metabolite hypoxanthine; for indole: metabolite indole; for inosine: metabolite inosine; for 2_3-Diphosphoglyceric acid / 4-phosphopantothenate / 6-phospho-D-gluconate / FMN / IMP / Pyrophosphate / Sedoheptoluse bisphosphate / cyclic-AMP / glutathione disulfide / lactate / myo-inositol: metabolite level change after treatment; for nicotinate: metabolite nicotinate; for ornithine: metabolite ornithine; for phosphoenolpyruvate: metabolite phosphoenolpyruvate; for pyruvate: metabolite pyruvate; for ribose-phosphate: metabolite ribose-phosphate; for sarcosine/alanine: metabolite sarcosine/alanine; for sn-glycerol-3-phosphate: metabolite sn-glycerol-3-phosphate; for succinate/methylmalonic acid: metabolite succinate/methylmalonic acid; for uridine: metabolite uridine; for xanthosine: metabolite xanthosine
P. falciparum = test: EC50 listed in S2 Table Metabolomics (used to set the concentration tested); format: cell-based; details: Plasmodium falciparum; EC50 used for Factor_XEC50 in metabolomics; read-out: EC50_nM
[2] = 3D7, read-out: P. falciparum 3D7 IC50 HCO3- (2g/L), standard media
[3] = 3D7, HCO3- reduced media, read-out: P. falciparum 3D7 IC50 HCO3- reduced

For `O=C(NCC(c1ccsc1)N1CCCCCC1)c1ccc(C(F)(F)F)cc1` (stereo not shown) [MMV396672], the “fold change (IC50reduced/IC50normal)” value (P. falciparum 3D7) was 2.6, the IC50 (P. falciparum 3D7; [2]) was 425 nM and the IC50 (P. falciparum 3D7; [3]) was 1120 nM. It also gave an Acetyllysine [1] of -0.3412, a N-acetyl-L-ornithine [1] of 0.04406 and a N-carbamoyl-L-aspartate [1] of 1.501. For the same compound, the NADPH [1] was 1.59, the dAMP [1] was -0.1547 and the dCMP [1] was -0.6707. For the same compound, the dTDP [1] was -0.2295, the dTMP [1] was -0.1132 and the dTTP [1] was -0.02683. It also gave a dihydroorotate [1] of 1.3113, an orotate [1] of -0.2374 and a DLH [1] of 0.2454. It also gave a DLS/SDL/SID [1] of 0.4945, a PD [1] of -0.2062 and a PEE [1] of 0.3834. For the same compound, the PVNF [1] was 0.4792, the 3-phosphoglycerate [1] was 0.01662 and the ADP-D-glucose [1] was 0.1495. The ATP [1] was 0.06805, the CDP [1] was -0.3083 and the D-sedoheptulose-1/7-phosphate [1] was -0.1874. The FAD [1] was 0.01705, the GMP [1] was -0.121 and the “NAD+” value [1] was -0.07697. The “NADP+” value [1] was 0.1144, the “Octoluse Bisphosphate” value [1] was -0.0874 and the Pyroglutamic acid [1] was -0.2718. The UDP-D-glucose [1] was 0.05361, the UDP-D-glucuronate [1] was 0.1556 and the UDP-N-acetyl-glucosamine [1] was -0.04862. It also gave a UDP [1] of -0.327, a UMP [1] of -1.306 and a UTP [1] of -0.1422. For the same compound, the a-ketoglutarate [1] was -0.6396, the citrate/isocitrate [1] was -0.6773 and the cytidine [1] was 0.6424. The dATP [1] was 0.05116, the dGMP/AMP [1] was -0.08656 and the fumarate [1] was -0.2118. It also gave a glucose-1/6-phosphate [1] of 0.01846, a glycerate [1] of -1.2197 and a guanine [1] of -0.7457. The guanosine [1] was -1.987, the hypoxanthine [1] was 0.2737 and the indole [1] was 0.1693. It also gave an inosine [1] of -0.393, a 2_3-Diphosphoglyceric acid [1] of -0.1323 and a 4-phosphopantothenate [1] of -0.391. For the same compound, the 6-phospho-D-gluconate [1] was -0.02288, the FMN [1] was 0.06346 and the IMP [1] was -0.1805. The Pyrophosphate [1] was -0.05249, the Sedoheptoluse bisphosphate [1] was -0.2083 and the cyclic-AMP [1] was -0.07949. It also gave a glutathione disulfide [1] of -0.4263, a lactate [1] of -0.6757 and a myo-inositol [1] of -1.04. It also gave a nicotinate [1] of -1.005, an ornithine [1] of 0.1454 and a phosphoenolpyruvate [1] of -0.3004. For the same compound, the pyruvate [1] was -1.162, the ribose-phosphate [1] was 0.03374 and the sarcosine/alanine [1] was -0.5204. It also gave a sn-glycerol-3-phosphate [1] of -0.07409, a succinate/methylmalonic acid [1] of -0.4318 and a uridine [1] of -0.8839. For the same compound, the xanthosine [1] was -0.8196 and the EC50 (P. falciparum) was 433 nM.

With `CCN(CC)CCNc1ccnc2cc(Cl)ccc12` [MMV006087] the “fold change (IC50normal/ IC50hypoxia)” value (P. falciparum 3D7) was 2.2, the “fold change (IC50reduced/IC50normal)” value (P. falciparum 3D7) was 2.0 and the IC50 (P. falciparum 3D7; 3D7, read-out: P. falciparum 3D7 IC50 1% O2, 1% O2 hypoxia) was 18 nM. For the same compound, the IC50 (P. falciparum 3D7; 3D7, read-out: P. falciparum 3D7 IC50 5% O2) was 40 nM, the IC50 (P. falciparum 3D7; [2]) was 46 nM and the IC50 (P. falciparum 3D7; [3]) was 94 nM. For the same compound, the Acetyllysine [1] was -0.6709, the N-acetyl-L-ornithine [1] was -0.3158 and the N-carbamoyl-L-aspartate [1] was 0.2408. It also gave an NADPH [1] of 1.332, a dAMP [1] of 1.732 and a dCMP [1] of 0.4187. For the same compound, the dTDP [1] was 0.1999, the dTMP [1] was 1.797 and the dTTP [1] was -0.4289. It also gave a dihydroorotate [1] of 0.1541, an orotate [1] of -0.4098 and a DLH [1] of -1.609. For the same compound, the DLS/SDL/SID [1] was -1.645, the PD [1] was -0.5241 and the PEE [1] was 0.8188. The PVNF [1] was -2.104, the 3-phosphoglycerate [1] was -0.1063 and the ADP-D-glucose [1] was 0.134. It also gave an ATP [1] of -0.2173, a CDP [1] of 0.2969 and a D-sedoheptulose-1/7-phosphate [1] of -0.3976. The FAD [1] was -0.08711, the GMP [1] was 0.04645 and the “NAD+” value [1] was -0.09966. The “NADP+” value [1] was 0.09641, the “Octoluse Bisphosphate” value [1] was 0.7357 and the Pyroglutamic acid [1] was -0.2816. It also gave a UDP-D-glucose [1] of -0.03029, a UDP-D-glucuronate [1] of -0.03795 and a UDP-N-acetyl-glucosamine [1] of -0.1287. It also gave a UDP [1] of -0.01186, a UMP [1] of -0.1675 and a UTP [1] of -0.4234. For the same compound, the a-ketoglutarate [1] was -1.012, the citrate/isocitrate [1] was -0.5672 and the cytidine [1] was 0.4735. For the same compound, the dATP [1] was -0.2015, the dGMP/AMP [1] was 1.373 and the fumarate [1] was -0.3281. For the same compound, the glucose-1/6-phosphate [1] was -0.3642, the glycerate [1] was -1.245 and the guanine [1] was -0.2729. It also gave a guanosine [1] of -1.735, a hypoxanthine [1] of 0.3732 and an indole [1] of 0.02177. It also gave an inosine [1] of -0.5366, a 2_3-Diphosphoglyceric acid [1] of -0.3682 and a 4-phosphopantothenate [1] of -0.474. The 6-phospho-D-gluconate [1] was -0.3619, the FMN [1] was 0.01066 and the IMP [1] was -0.05089. The Pyrophosphate [1] was -0.2464, the Sedoheptoluse bisphosphate [1] was 1.503 and the cyclic-AMP [1] was -0.4094. It also gave a glutathione disulfide [1] of -0.5661, a lactate [1] of -0.8938 and a myo-inositol [1] of -1.322. It also gave a nicotinate [1] of -1.055, an ornithine [1] of 0.317 and a phosphoenolpyruvate [1] of -0.3268. The pyruvate [1] was -1.42, the ribose-phosphate [1] was -0.4165 and the sarcosine/alanine [1] was -0.8094. It also gave a sn-glycerol-3-phosphate [1] of -0.2401, a succinate/methylmalonic acid [1] of -0.2149 and a uridine [1] of -1.004. It also gave a xanthosine [1] of -1.365 and an EC50 (P. falciparum) of 58.1 nM.
